# Reference: US20100021471A1, “CARBON NANOTUBE-BASED DRUG DELIVERY SYSTEMS AND METHODS OF MAKING SAME” (Brookhaven Science Associates, LLC, priority 2008, published 2010)
# Tested on: L1210FR cells
# Assay: MTT cytotoxicity assay, L1210FR cells
# Format: cell-based
# Conditions: read-out: IC50 of drug itself
# Protocol: Cell culture. L1210 (ATCC) and L1210FR (a gift from Dr. Gregory Russell-Jones, Access Pharmaceuticals Australia Pty Ltd., Targeted Delivery, Unit 5, 15-17 Gibbes St, Chatswood, NSW, Sydney 2067. Australia) were grown as suspension in a RPMI-1640 cell culture medium (Gibco) in the absence of folic acid (FA) supplemented with 10% (v/v) heat-inactivated fetal bovine serum (FBS) and 1% (v/v) Penicillin and Streptomycin (P/S) at 37° C. in humidified atmosphere with 5% CO2. W1-38 embryonic fibroblast cells (ATCC) were cultured as monolayers on a 100 mm tissue culture dishes in a DMEM cell culture medium (Gibco) supplemented with 10% (v/v) heat-inactivated FBS and 1% (v/v) P/S at 37° C. in humidified atmosphere with 5% CO2. The cells were harvested, collected by centrifugation at 1000 rpm for 6 min, and resuspended in fresh medium at different cell density for biological experiments.
# Cytotoxicity assay of conjugate 3. The cells were harvested, collected, and resuspended in 100 μL at a concentration of 2×10^4 cells per well in 96-well plates. For the adhesive cell type, the cells were allowed to reseed to the bottom of the plates overnight and the fresh medium were added to each well upon removal of the old medium. […] At the end of this time, the number of viable cells each wells was determined by a quantitative colorimetric staining assay using a tetrazolium salt (MTT, Sigma Chemical Co.). […]
substance,measurement,value
SB-T-1214-fluorescein,IC50,87.6 nM
